{"source": "patent US7115556B2", "about": "“Use of anti-prolactin agents to treat proliferative conditions” (Greenville Hospital System, priority 1998, dated 2006)", "molecules": {"B1": {"name": "hPRL: human prolactin, recombinant from transfected mouse L cells or purified from NIH (protein)", "chain": "LPICPGGAARCQVTLRDLFDRAVVLSHYIHNLSSEMFSEFDKRYTHGRGFITKAINSCHTSSLATPEDKEQAQQMNQKDFLSLIVSILRSWNEPLYHLVTEVRGMQEAPEAILSKAVEIEEQTKRLLEGMELIVSQVHPETKENEIYPVWSGLPSLQMADEESRLSAYYNLLHCLRRDSHKIDNYLKLLKCRIIHNNNC"}}, "key": {"MCF-7 cells": {"system": "MCF-7 cells", "experiment": "TUNEL assay, MCF-7", "assay_type": "cell-based, human", "conditions": "4-OH-Tamoxifen 1 μM, 24 hours", "experimental": "(§1) Cell Culture. T-47D cells obtained from ATCC were grown in RPMI 1640 (phenol red free), supplemented with 10% FBS (GIBCO BRL). BT-474 cells were grown in RPMI 1640 medium (phenol red free) supplemented with 10% FBS and ATCC recommended supplements. MCF-7 cells were grown in DMEM medium (phenol red free), supplemented with 10% FBS. The cells were grown at 37° C. in a humid atmosphere in the presence of 5% CO2. The MDA-MB-134 cells were grown in Leibovitz's L-15 medium supplemented with 20% FBS and grown in CO2 free atmosphere. The breast cancer cells were trypsinized (0.02% Trypsin—EDTA) and grown in their respective media (phenol red free) supplemented with 10% CSS (Charcoal stripped serum) for a week. Subsequently the cells were trypsinized again and plated onto an 8 chambered slide system (Lab Tek II) at a confluence of 60–70% per chamber. The next day treatments were performed on the breast cancer cells using their respective media(phenol red free), supplemented with 1% CSS. The MDA-MB-134 VI cells were grown in phenol red containing medium, but with the same serum conditions as the other breast cancer cells.\nTerminal deoxynucleotidly transferase mediated dUTP nick end labeling (TUNEL) assay. Nicks of the fragmented DNA are labeled at their 3-OH ends. The fluorescein-labeled dUTP is incorporated at the 3-OH ends by using the enzyme terminal deoxynucleotidyl transferase. […]"}, "[1]": {"system": "T47-D human breast cancer cells", "experiment": "96 well cell proliferation assay with conditioned media (MTS-PMS)", "assay_type": "cell-based", "experimental": "HPRLG129R Conditioned Media. The assay conditions were modified from that described by Ginsburg and Vonderharr (1995, Cancer Res. 55:2591–2595). T47-D cells were trypsinized and passed into 96 well plates in RPMI-1640 media containing 1% DCC-FCS in a volume of 100 μl/well. The optimal cell number/well for each cell line was pre-determined after titration assay. For T47-D cells, 15,000 cells/well were plated. The cells were allowed to settle and adhere overnight (12–18 hours) and subsequently various concentrations of either hPRL, hRPL-G129R, E2 or 4-OH-Tamoxifen in a total volume of 100 μl of culture media were added. Purified hPRL (kindly provided by Dr. Parlow, National Hormone & Pituitary Program, NIH) was used as a positive control for hPRL produced from stable L cells. Cells were incubated for an additional 96 hours at 37° C. in a humidified 5% CO2 incubator. After incubation, MTS-PMS solution (Cell Titer 96 Aqueous kit, Promega Corp.) was added to each well, following the manufacturer's instructions. Plates were read at 490 nm using a BIO-RAD benchmark microplate reader. The experiments were carried out in triplicates and repeated three to six times for each cell line."}, "[2]": {"system": "T-47D human breast cancer cells", "experiment": "TUNEL assay, T-47D", "assay_type": "cell-based", "experimental": "as §1\n(§2) Terminal deoxynucleotidly transferase mediated dUTP nick end labeling (TUNEL) assay. Nicks of the fragmented DNA are labeled at their 3-OH ends. The fluorescein-labeled dUTP is incorporated at the 3-OH ends by using the enzyme terminal deoxynucleotidyl transferase. After the assigned period of treatment the chambers were dismantled as per the manufacturer's instructions and the TUNEL assay (Apoptosis detection system, Fluorescein- Promega) was performed as per the manufacturer's instructions. The slide was examined under a FITC filter using an Olympus IX 70 microscope system."}, "BT-474 cells": {"system": "BT-474 cells", "experiment": "TUNEL assay, BT-474", "assay_type": "cell-based, human", "conditions": "4-OH-Tamoxifen 1 μM, 24 hours", "experimental": "as §1, §2"}, "[3]": {"system": "T47D human breast cancer cells", "experiment": "Cell proliferation assay, cell counting", "assay_type": "cell-based", "conditions": "for proliferation of T47D cells relative to untreated control cultures: FIGS. 5A-B; for shape of dose response curve, T-47D cell number: FIG. 4", "experimental": "Cell proliferation assays. hPRLA was tested for its ability to inhibit breast cancer cell proliferation in tissue culture. The human breast cancer cells were grown in corresponding culture media according to ATCC recommendations. Cells were maintained at 37° C. in a humidified atmosphere of 5% CO2 in air. The assay conditions were essentially as described by Ginsburg and Vonderharr (1995, Cancer Res. 55:2591–2595). For individual growth experiments, cells were plated in 12 well culture plates at a density of approximately 2×10^4 /ml, 1 ml/ well. Cells were then allowed to attach for one day (T-47D, MCF-7, HTB19, and HTB20 cells, except for HTB 123, which is a suspension cells), then the overlying media was removed and changed to serum-free conditions with media containing ITS^+ (insulin-transferring-selenium-BSA-linoleic acid culture supplement; Collaborative Research Bedford, Mass.). Varying concentrations of hPRL alone or in combination with hPRLA were introduced. After an additional three days in culture, cells were harvested after brief trypsinization and counted in a cell counter."}, "[4]": {"system": "tyrosine phosphorylation of STAT protein", "conditions": "literature; cited from earlier work"}, "[5]": {"system": "hGH receptor on T-47D and HTB123 cells", "experiment": "Competitive radioreceptor binding assay", "set-up": "species or system human", "conditions": "T-47D and HTB123 compared to leukemia, lymphoma and retinoblastoma cells"}, "[6]": {"system": "T47D human breast cancer cells", "experiment": "Mixed cell culture assay with transfected L cells, T47D", "assay_type": "cell-based", "conditions": "co-culture with transfected L cells, 24 h to five days", "from_the_text": "For certain experiments, a mixed cell culture assay was used, diagramatically represented in FIG. 6. In this assay, breast cancer cells were co-cultured with expressor cells which had been transfected with nucleic acid encoding PRL or a PRL variant and expressing those recombinant proteins. By varying the number of expressor cells, the amount of PRL or PRL variant present in the mixed cell culture was increased or decreased. […] In certain wells, which served as a control, no expresser cells were added. Then, increasing numbers of expresser cells (transfected L cells expressing either HPRL (L-PRL) or hPRLA (L-PRLA)) were added to breast cancer cell-containing wells to create mixed cultures. The same numbers of expressor cells were cultured in parallel (without T47D cells) to serve as controls. After culturing under standard conditions for a period of time, the number of cells present in the wells was counted, and the number of L cells in the corresponding control culture was subtracted. The resulting number could then be compared to the number of T47D cells in the T47D control culture to evaluate the effects of the recombinant product on breast cancer cell proliferation."}, "[7]": {"system": "tyrosine phosphorylation of STAT5 protein in T-47D human breast cancer cells", "experiment": "hPRL induction of tyrosine phosphorylation of STAT5 protein (Example 8)", "assay_type": "cell-based", "conditions": "T-47D cells, 5 nM of hormone alone, Western blot FIG. 3", "from_the_text": "Assay of hPRL induction of tyrosine phosphorylation of STAT5 protein. […] Tyrosyl phosphorylation of STAT 5 is a receptor mediated event and is thought to be an important step in ligand-induced signal transduction (Wakao et al., 1994, EMBO J. 13: 2182–2191; Kazansky et al., 1995, Mol. Endocrinol. 9:1598–1609; Waxman et al., 1995, J. Biol. Chem. 270:13262–13270). This assay was used to evaluate the ability of hPRL and hPRLA to inhibit induction of STAT 5 phosphorylation by wild type PRL.\nBriefly, human breast cancer cells were plated in 12-well plates. After pre-incubation in serum-free DMEM for 2–3 hours, the cells were exposed to various concentration of hPRL and hPRLA in serum-free DMEM. The cells were incubated for 15 min at 37° C., washed once with PBS, and lysed in 300 μl lysis buffer (50 mM Tris-HCl, pH 6.8, 1% SDS, 1% β-mecaptoethanol, 0.1M DTT, 5% Sucrose, 100 uM Sodium Orthovanadate, and 0.6% bromphenol blue). Thirty microliters of cell lysates were subjected to 4–12.5% SDS-PAGE and immunoblot analysis using horse radish peroxidase (HRP)-conjugated anti-phosphotyrosine antibody PY20 and ECL reagent kit (Amersham, Ill.). Blots were then exposed to X-ray films and developed using standard procedures (Kodak, Rochester, N.Y.). This assay has been described in Chen et al., 1994, J. Biol. Chem. 269: 15892–15897; Chen et al., 1995, Endocrinol. 136:660–667; Wang et al., 1994, Proc. Natl. Acad. Sci. U.S.A. 91:1391–1395; Chen et al., 1995, Mol. Endocrinol. 9(3):292–302; Harding et al., 1996, J. Biol. Chem. 271(12):6708–6712."}}, "data": [{"molecule": "CC/C(=C(\\c1ccc(O)cc1)c1ccc(OCCN(C)C)cc1)c1ccccc1", "note": "[4-OH-Tamoxifen, reference compound]", "values": [{"measurement": "induction of apoptosis", "setting": "MCF-7 cells", "value": "did not induce apoptosis"}, {"measurement": "inhibition of cell proliferation", "setting": "[1]; 100 nM 4-OH-Tamoxifen alone", "value": 15, "unit": "%"}, {"measurement": "maximum inhibition by a single dose", "setting": "[1]; 4-OH-Tamoxifen at 500 nM, T47-D", "value": "approximately 15 % of control"}, {"measurement": "induction of apoptosis", "setting": "[2]; 4-OH-Tamoxifen 1 μM, 24 hours", "value": "did not induce apoptosis"}, {"measurement": "induction of apoptosis", "setting": "BT-474 cells", "value": "did not induce apoptosis"}]}, {"molecule": "CC/C(=C(\\c1ccccc1)c1ccc(OCCN(C)C)cc1)c1ccccc1", "note": "[tamoxifen, reference compound]", "values": [{"measurement": "proliferation of T47D cells relative to untreated control cultures", "setting": "[3]", "value": "comparable inhibitory effect"}]}, {"molecule": "estrogen [reference compound]", "values": [{"measurement": "proliferation of T47D cells relative to untreated control cultures", "setting": "[3]", "value": "increased proliferation"}]}, {"molecule": "hGH-G120R: GH antagonist, variant of human GH with glycine at position 120 substituted with arginine", "values": [{"measurement": "effect on GH induction of STAT protein phosphorylation", "setting": "[4]", "value": "inhibit GH induction of STAT protein phosphorylation in a dose dependent manner"}]}, {"molecule": "hGH: human growth hormone", "values": [{"measurement": "shape of dose response curve, T-47D cell number", "setting": "[3]", "value": "bell shaped dose response curves"}, {"measurement": "hGH receptor specific binding", "setting": "[5]", "value": "minimum"}]}, {"molecule": "B1", "values": [{"measurement": "T47D proliferation relative to untreated T47D cell cultures", "setting": "[6]", "value": "increase in T47D proliferation"}, {"measurement": "shape of dose response curve, T-47D cell number", "setting": "[3]", "value": "bell shaped dose response curves"}, {"measurement": "proliferation of T47D cells relative to untreated control cultures", "setting": "[3]", "value": "increased proliferation"}, {"measurement": "maximum response in the presence of E2 compared to hPRL alone", "setting": "[1]; hPRL 100 ng/ml with 10 nM E2", "value": "more than tripled"}, {"measurement": "maximum stimulation over basal levels", "setting": "[1]; hPRL 250 ng/ml, single dose, four-day incubation", "value": "approximately 20%"}, {"measurement": "effect on T47-D proliferation, dose response", "setting": "[1]; single dose, four-day incubation", "value": "stimulated T47-D proliferation in a dose dependent manner"}, {"measurement": "reversal of G129R-induced DNA fragmentation", "setting": "[2]; 4:1 ratio (500 ng/ml hPRL, 125 ng/ml hPRL-G129R)", "value": "competitively reverse the DNA fragmentation"}, {"measurement": "induction of phosphorylation of STAT5 proteins", "setting": "[7]", "value": "induced"}]}]}
